PubChem BioAssay (NCI)
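The compound was tested at five concentrations on cells cultured in 96-well plates, with a 48-hour exposure period. Definition used: TGI = concentration required for complete inhibition of growth.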

Columns and labels:
Assay in all cases: growth of human tumour cells (NCI), 48 h
EKVX NSCLC = tested on: EKVX NSCLC
SNB-19 CNS = tested on: SNB-19 CNS
SN12C renal = tested on: SN12C renal
CAKI-1 renal = tested on: CAKI-1 renal
M14 melanoma = tested on: M14 melanoma
SR leukemia = tested on: SR leukemia
OVCAR-3 ovarian = tested on: OVCAR-3 ovarian
RPMI-8226 leukemia = tested on: RPMI-8226 leukemia
MALME-3M melanoma = tested on: MALME-3M melanoma
MOLT-4 leukemia = tested on: MOLT-4 leukemia
ACHN renal = tested on: ACHN renal
NCI-H460 lung = tested on: NCI-H460 lung
K-562 leukemia = tested on: K-562 leukemia
HT29 colon = tested on: HT29 colon
SF-539 CNS = tested on: SF-539 CNS
HS 578T breast = tested on: HS 578T breast
A498 renal = tested on: A498 renal
MDA-N = tested on: MDA-N
SK-MEL-2 melanoma = tested on: SK-MEL-2 melanoma

Compound | TGI (EKVX NSCLC) [µM] | TGI (SNB-19 CNS) [µM] | TGI (SN12C renal) [µM] | TGI (CAKI-1 renal) [µM] | TGI (M14 melanoma) [µM] | TGI (SR leukemia) [µM] | TGI (OVCAR-3 ovarian) [µM] | TGI (RPMI-8226 leukemia) [µM] | TGI (MALME-3M melanoma) [µM] | TGI (MOLT-4 leukemia) [µM] | TGI (ACHN renal) [µM] | TGI (NCI-H460 lung) [µM] | TGI (K-562 leukemia) [µM] | TGI (HT29 colon) [µM] | TGI (SF-539 CNS) [µM] | TGI (HS 578T breast) [µM] | TGI (A498 renal) [µM] | TGI (MDA-N) [µM] | TGI (SK-MEL-2 melanoma) [µM]
CN(C)Cc1cc(N=Nc2ccccc2Cl)ccc1O | > 100 | > 100 | > 100 | 56.6 | 44.5 | > 100 | 66.9 | 81.4 | 25.9 | 28.3 | 33.4 | 18.2 | 38.4 | 33.7 | 59.5 | 48.4 | 26.1 | 33.4 | –
N#Cc1c(N)c2c(c(-c3ccccc3)c1-c1ccccc1)C(=O)N(Nc1ccccc1)C2=O | > 100 | > 100 | > 100 | > 100 | 87.4 | > 100 | 78.1 | > 100 | > 100 | > 100 | > 100 | > 100 | > 100 | – | > 100 | > 100 | > 100 | > 100 | > 100
COC(=O)CCCC(=O)NC1=C(Nc2ccccc2)C(=O)c2ccccc2C1=O | 49.7 | 34.6 | 45.1 | 44 | 29.6 | > 100 | 38 | 59.7 | 12.9 | 45.5 | 62.2 | 33.7 | 47.3 | – | 35 | 84.4 | 32.5 | 15 | 34.2
COc1cc(OC)cc(-n2c(N)c(-c3nc4ccccc4s3)c3ccc([N+](=O)[O-])cc3c2=O)c1 | – | > 100 | 82.8 | > 100 | – | 89.7 | – | > 100 | > 100 | – | 41.7 | > 100 | > 100 | > 100 | 37.5 | > 100 | 76.7 | > 100 | –
COc1cccc(CCn2c(N)c(C(=O)O)c3ccc([N+](=O)[O-])cc3c2=O)c1 | > 100 | > 100 | > 100 | > 100 | > 100 | > 100 | > 100 | > 100 | > 100 | > 100 | > 100 | > 100 | > 100 | > 100 | – | > 100 | > 100 | > 100 | 68.3
CC(C)(C)OC(=O)NNC(=O)C1Cc2ccccc2OC1=O (centres undefined) | > 100 | > 100 | > 100 | > 100 | > 100 | > 100 | > 100 | > 100 | > 100 | > 100 | > 100 | > 100 | > 100 | > 100 | > 100 | > 100 | – | > 100 | > 100
CC(=O)/C(N=Nc1ccc(-n2c(C)nc3ccc(Br)cc3c2=O)cc1)=C(/C)O | > 100 | > 100 | > 100 | > 100 | > 100 | > 100 | > 100 | > 100 | – | > 100 | > 100 | > 100 | > 100 | > 100 | > 100 | 91.2 | > 100 | > 100 | > 100
CC1=C(C(=O)NNC(=O)C(N)=O)CC(C(=O)NNC(=O)C(N)=O)=C(C)N1 | > 100 | > 100 | > 100 | > 100 | > 100 | > 100 | > 100 | > 100 | – | > 100 | > 100 | > 100 | > 100 | > 100 | > 100 | > 100 | > 100 | > 100 | > 100
CC(C)C(C/C=C1/CC(CO)(COC(=O)C(C)(C)C)OC1=O)C(C)C (centres undefined) | 23 | 26.1 | 23.3 | 17.9 | 24.4 | > 50.5 | 29.9 | – | 19.2 | 35.6 | 21 | 25.7 | 24.9 | 32.3 | 15.4 | 11 | 21.8 | 19.6 | 29.9
COC(=O)C1=C([C@H]2COC(C)(C)O2)[C@H]2C[C@@H]1[C@@H]1OC(C)(C)O[C@@H]12 | > 100 | > 100 | > 100 | – | > 100 | > 100 | > 100 | > 100 | > 100 | > 100 | > 100 | > 100 | > 100 | > 100 | > 100 | > 100 | > 100 | > 100 | > 100
O=C1NC(=O)[C@@H](OCC2CCCCC2)[C@@H]2OCC3OC(C(O)C3O)C12 (some centres undefined) | > 100 | > 100 | > 100 | > 100 | > 100 | > 100 | > 100 | – | > 100 | > 100 | > 100 | > 100 | – | > 100 | > 100 | > 100 | > 100 | > 100 | > 100
CN(C)/N=C1\C=C2CC[C@H](O[Si](C)(C)C(C)(C)C)[C@@]2(C)CC1 | 38.6 | 31.9 | – | 27.3 | 33 | 40.9 | 27.9 | 22 | 30.8 | 32.4 | 30.1 | 31.9 | 35.9 | 34.9 | 42.4 | 43.9 | 38.7 | 41.4 | 30.4
COC(=O)/C=C\[C@@H]1[C@H](C)N1S(=O)(=O)c1ccc(C)cc1 (some centres undefined) | – | > 100 | > 100 | > 100 | > 100 | > 100 | > 100 | > 100 | > 100 | > 100 | > 100 | > 100 | > 100 | > 100 | > 100 | > 100 | > 100 | > 100 | > 100
